# Experimental data published in patent US5502035A, “N-terminus modified analogs of LHRH” (Tap Holdings Inc., priority 1994, dated 1996).
# Non-standard residues stand in square brackets, D forms with d. Residues, ends and D or L forms follow the SMILES beside them. Groups on a side chain read outwards from the residue. *: point of attachment. Shikimoyl = O=C(C1=C[C@@H](O)[C@@H](O)[C@H](O)C1)*; Tetrahydrofuroyl(2R) = O=C([C@H]1CCCO1)*; dPhe(4-Cl) = N[C@H](Cc1ccc(Cl)cc1)C(=O)O; d2Nal = N[C@H](Cc1ccc2ccccc2c1)C(=O)O; Acetyl(3-pyridyl) = O=C(Cc1cccnc1)*; Lys(iPr) = CC(C)NCCCC[C@H](N)C(=O)O; NMeY = CN[C@@H](Cc1ccc(O)cc1)C(=O)O; dCit = NC(=O)NCCC[C@@H](N)C(=O)O; d3Pal = N[C@H](Cc1cccnc1)C(=O)O; NMeL = CN[C@@H](CC(C)C)C(=O)O; Nicotinoyl = O=C(c1cccnc1)*
# Biological target: T1, LHRH (Rattus norvegicus, UniProt P30969)
# T1 construct: endogenous in cells; host or cells: rat pituitary cells (own knowledge of the cited Haviv 1989 method)
# T1 sequence (P30969 1-327): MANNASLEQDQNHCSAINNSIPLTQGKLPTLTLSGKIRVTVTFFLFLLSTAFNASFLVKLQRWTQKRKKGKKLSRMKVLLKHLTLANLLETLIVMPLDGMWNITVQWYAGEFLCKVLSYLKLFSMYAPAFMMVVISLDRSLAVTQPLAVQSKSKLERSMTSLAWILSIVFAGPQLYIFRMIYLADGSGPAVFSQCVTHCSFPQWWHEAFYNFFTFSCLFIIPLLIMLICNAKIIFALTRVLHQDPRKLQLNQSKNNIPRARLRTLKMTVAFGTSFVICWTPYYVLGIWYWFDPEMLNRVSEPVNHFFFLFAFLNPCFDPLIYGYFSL
# Test: in vitro test for LHRH antagonist potency (pA2)
# Format: cell-based
# Details: negative logarithm of the antagonist concentration required to shift the response curve produced by the agonist leuprolide to two-fold higher concentration
# Method: Representative compounds of the present invention were evaluated in an in vitro test for LHRH antagonist potency (pA2). The test employed the method detailed in F. Haviv, et al. J. Med. Chem., 32:2340-2344 (1989). The values of pA2 are the negative logarithms of the concentration of the particular antagonist test compound required to shift the response curve produced by the agonist leuprolide to two-fold higher concentration. (Leuprolide is the LHRH agonist having the structure 5-oxo-Pro^1 -His^2 -Trp^3 -Ser^4 -Tyr^5 -D-Leu^6 -Leu^7 -Arg^8 -Pro^9 -NHEt and is disclosed and claimed in U.S. Pat. No. 4,005,063.) Typically pA2 values of 9.5 or greater are indicative of good LHRH antagonist potency, with values of 10.0 or greater being preferred.
compound,measurement,value
"CC(C)C[C@H](NC(=O)[C@@H](CCCCNC(=O)NNC(=O)c1cccnc1)NC(=O)[C@H](Cc1ccc(O)cc1)N(C)C(=O)[C@H](CO)NC(=O)[C@@H](Cc1cccnc1)NC(=O)[C@@H](Cc1ccc(Cl)cc1)NC(=O)[C@@H](Cc1ccc2ccccc2c1)NC(=O)CNC(=O)C1CCCO1)C(=O)N[C@@H](CCCCNC(C)C)C(=O)N1CCC[C@H]1C(=O)N[C@H](C)C(N)=O (mixture of isomers) [Example 11, N-(R,S)Tetrahydrofur-2-oyl-Gly-D2Nal-D4ClPhe-D3Pal-Ser-NMeTyr-DLys(Azagly-Nicotinyl) -Leu-Lys(N-epsilon-Isopropyl)-Pro-DAlaNH2]",Kb,0.038 nM
"CC(=O)N[C@H](Cc1ccc(O)cc1)C(=O)N[C@H](Cc1ccc2ccccc2c1)C(=O)N[C@H](Cc1ccc(Cl)cc1)C(=O)N[C@H](Cc1cccnc1)C(=O)N[C@@H](CO)C(=O)N(C)[C@@H](Cc1ccc(O)cc1)C(=O)N[C@H](CCCCNC(=O)c1cccnc1)C(=O)N[C@@H](CC(C)C)C(=O)N[C@@H](CCCCNC(C)C)C(=O)N1CCC[C@H]1C(=O)N[C@H](C)C(N)=O [Example 1, N-Ac-DTyr-D2Nal-D4ClPhe-D3Pal-Ser-NMeTyr-DLys(Nicotinyl)-Leu-Lys(N-epsilon- Isopropyl) -Pro-DAlaNH2] (Ac-[dY][d2Nal][dPhe(4-Cl)][d3Pal]S[NMeY][dK](Nicotinoyl)L[Lys(iPr)]P[dA]-NH2)",Kb,0.0178 nM
"CC(C)C[C@H](NC(=O)[C@@H](CCCCNC(=O)c1cccnc1)NC(=O)[C@@H](Cc1ccc(O)cc1)N(C)C(=O)[C@H](CO)NC(=O)[C@@H](Cc1cccnc1)NC(=O)[C@@H](Cc1ccc(Cl)cc1)NC(=O)[C@@H](Cc1ccc2ccccc2c1)NC(=O)CNC(=O)[C@@H]1CCCO1)C(=O)N[C@@H](CCCCNC(C)C)C(=O)N1CCC[C@H]1C(=O)N[C@H](C)C(N)=O [Example 90, N (S)-2-Tetrahydrofuroyl-Gly-D2Nal-D4ClPhe-D3pal-Ser-DNMeTyr-DLys(N-epsilon-Nicotinyl) -Leu-Lys(N-epsilon-Isopropyl)-pro-DAlaNH2]",Kb,0.457 nM
"CC(C)C[C@H](NC(=O)[C@@H](CCCCNC(=O)CNC(=O)c1cccnc1)NC(=O)[C@H](Cc1ccc(O)cc1)N(C)C(=O)[C@H](CO)NC(=O)[C@@H](Cc1cccnc1)NC(=O)[C@@H](Cc1ccc(Cl)cc1)NC(=O)[C@@H](Cc1ccc2ccccc2c1)NC(=O)CNC(=O)c1cccnc1)C(=O)N[C@@H](CCCCNC(C)C)C(=O)N1CCC[C@H]1C(=O)N[C@H](C)C(N)=O [Example 8, N-Nicotinyl-Gly-D2Nal-D4ClPhe-D3Pal-Ser-NMeTyr-DLys(Gly-Nicotinyl)-Leu-Lys (N-epsilon-Isopropyl)-Pro-DAlaNH2] (Nicotinoyl-G[d2Nal][dPhe(4-Cl)][d3Pal]S[NMeY][dK]([Gly-Nicotinoyl])L[Lys(iPr)]P[dA]-NH2)",Kb,0.0204 nM
"CC(C)C[C@H](NC(=O)[C@@H](CCCCNC(=O)c1cccnc1)NC(=O)[C@H](Cc1ccc(O)cc1)N(C)C(=O)[C@H](CO)NC(=O)[C@@H](Cc1cccnc1)NC(=O)[C@@H](Cc1ccc(Cl)cc1)NC(=O)[C@@H](Cc1ccc2ccccc2c1)NC(=O)CNC(=O)C1CCCO1)C(=O)N[C@@H](CCCCNC(C)C)C(=O)N1CCC[C@H]1C(=O)N(C)CC(N)=O (mixture of isomers) [Example 38, N-(R,S)-Tetrahydrofur-2-oyl-Gly-D2Nal-D4ClPhe-D3Pal-Ser-NMeTyr-DLys(Nicotinyl)-Leu-Lys(Isp)-Pro-SarNH2]",Kb,0.0309 nM
"CC(C)C[C@H](NC(=O)[C@@H](CCCCNC(=O)c1cccnc1)NC(=O)[C@H](Cc1ccc(O)cc1)N(C)C(=O)[C@H](CO)NC(=O)[C@@H](Cc1cccnc1)NC(=O)[C@@H](Cc1ccc(Cl)cc1)NC(=O)[C@@H](Cc1ccc2ccccc2c1)NC(=O)Cc1cccnc1)C(=O)N[C@@H](CCCCNC(C)C)C(=O)N1CCC[C@H]1C(=O)N[C@H](C)C(N)=O [Example 72h, N-(3-Pyridylacetyl)-D2Nal-D4ClPhe-D3Pal-Ser-NMeTyr-DLys(Nic)-Leu-Lys(Isp)- Pro-DAlaNH2] ({Acetyl(3-pyridyl)}-[d2Nal][dPhe(4-Cl)][d3Pal]S[NMeY][dK](Nicotinoyl)L[Lys(iPr)]P[dA]-NH2)",Kb,0.00631 nM
"CC(C)C[C@H](NC(=O)[C@@H](CCCCNC(=O)c1cccnc1)NC(=O)[C@H](Cc1ccc(O)cc1)N(C)C(=O)[C@H](CO)NC(=O)[C@@H](Cc1cccnc1)NC(=O)[C@@H](Cc1ccc(Cl)cc1)NC(=O)[C@@H](Cc1ccc2ccccc2c1)NC(=O)[C@H]1CCCO1)C(=O)N[C@@H](CCCCNC(C)C)C(=O)N1CCC[C@H]1C(=O)N[C@H](C)C(N)=O [Example 68, N-(R)-Tetrahydrofur-2-oyl-D2Nal-D4ClPhe-D3Pal-Ser-NMeTyr-DLys(Nic)-Leu-Lys(Isp)-Pro-DAlaNH2] ({Tetrahydrofuroyl(2R)}-[d2Nal][dPhe(4-Cl)][d3Pal]S[NMeY][dK](Nicotinoyl)L[Lys(iPr)]P[dA]-NH2)",Kb,0.0141 nM
"CC(C)C[C@H](NC(=O)[C@@H](CCCNC(N)=O)NC(=O)[C@H](Cc1ccc(O)cc1)N(C)C(=O)[C@H](CO)NC(=O)[C@@H](Cc1cccnc1)NC(=O)[C@@H](Cc1ccc(Cl)cc1)NC(=O)[C@@H](Cc1ccc2ccccc2c1)NC(=O)[C@@H](C)NC(=O)C1=C[C@@H](O)[C@@H](O)[C@H](O)C1)C(=O)N[C@@H](CCCNC(=N)N)C(=O)N1CCC[C@H]1C(=O)N[C@H](C)C(N)=O [Example 13e, N-Shikimyl-DAla-D2Nal-D4ClPhe-D3Pal-Ser-NMeTyr-DCit-Leu-Arg-Pro-DAlaNH2] (Shikimoyl-[dA][d2Nal][dPhe(4-Cl)][d3Pal]S[NMeY][dCit]LRP[dA]-NH2)",Kb,0.0316 nM
"CC(C)C[C@@H](C(=O)N[C@@H](CCCNC(=N)N)C(=O)N1CCC[C@H]1C(=O)N[C@H](C)C(N)=O)N(C)C(=O)[C@@H](CCCCNC(=O)C1=C[C@@H](O)[C@@H](O)[C@H](O)C1)NC(=O)[C@H](Cc1ccc(O)cc1)N(C)C(=O)[C@H](CO)NC(=O)[C@@H](Cc1cccnc1)NC(=O)[C@@H](Cc1ccc(Cl)cc1)NC(=O)[C@@H](Cc1ccc2ccccc2c1)NC(=O)CNC(=O)c1cccnc1 [Example 23b, N-Nicotinyl-Gly-D2Nal-D4ClPhe-D3Pal-Ser-NMeTyr-DLys(Shikimyl)-NMeLeu-Arg-Pro-DAlaNH2] (Nicotinoyl-G[d2Nal][dPhe(4-Cl)][d3Pal]S[NMeY][dK](Shikimoyl)[NMeL]RP[dA]-NH2)",Kb,0.0186 nM
"CC(C)C[C@H](NC(=O)[C@@H](CCCNC(N)=O)NC(=O)[C@H](Cc1ccc(O)cc1)N(C)C(=O)[C@H](CO)NC(=O)[C@@H](Cc1cccnc1)NC(=O)[C@@H](Cc1ccc(Cl)cc1)NC(=O)[C@@H](Cc1ccc2ccccc2c1)NC(=O)[C@@H](CO)NC(=O)C1=C[C@@H](O)[C@@H](O)[C@H](O)C1)C(=O)N[C@@H](CCCNC(=N)N)C(=O)N1CCC[C@H]1C(=O)N[C@H](C)C(N)=O [Example 13f, N-Shikimyl-DSer-D2Nal-D4ClPhe-D3Pal-Ser-NMeTyr-DCit-Leu-Arg-Pro-DAlaNH2] (Shikimoyl-[dS][d2Nal][dPhe(4-Cl)][d3Pal]S[NMeY][dCit]LRP[dA]-NH2)",Kb,0.0178 nM
"CC(C)C[C@H](NC(=O)[C@@H](CCCCNC(=O)c1cccnc1)NC(=O)[C@H](Cc1ccc(O)cc1)NC(=O)[C@H](CO)NC(=O)[C@@H](Cc1cccnc1)NC(=O)[C@@H](Cc1ccc(Cl)cc1)NC(=O)[C@@H](Cc1ccc2ccccc2c1)NC(=O)CNC(=O)C1CCCO1)C(=O)N[C@@H](CCCCNC(C)C)C(=O)N1CCC[C@H]1C(=O)N[C@H](C)C(N)=O (mixture of isomers) [Example 91, N (R,S)-2-Tetrahydrofuroyl-Gly-D2Nal-D4ClPhe-D3Pal-Ser-Tyr-DLys(N-epsilon-Nicotinyl) -Leu-Lys(N-epsilon-Isopropyl)-Pro-DAlaNH2]",Kb,0.00219 nM
